Reference: US20210207099A1, “METHODS AND COMPOSITIONS FOR GENERATING CELLS OF ENDODERMAL LINEAGE AND BETA CELLS AND USES THEREOF” (priority 2018, published 2021)

Tests used:
Type in all cases: cell-based, human
[1] = tested on: TGFβ signaling (phosphorylated SMAD); assay: Western blot of SMAD 2/3 phosphorylation in Stage 6 cells; details: lesser extent than Alk5i
Procedure: Protein was extracted from cell clusters after washing with PBS by placing in western blot lysis buffer consisting 50 mM HEPES, 140 mM NaCl (MilliporeSigma; 7647-14-5), 1 mM EDTA (MilliporeSigma, 1233508), 1% Triton X-100, 0.1% Na-deoxycholate (MilliporeSigma: D6750), 0.1% SDS (ThermoScientific; 24730020), 1 mM Na3VO4 (MilliporeSigma; 450243), 10 mM NaF (MilliporeSigma; S7920), and 1% Protease Inhibitor Cocktail (MilliporeSigma; p8340), incubating on a shaker for 15 min at 4° C., and centrifuging at 10000 RCF for 10 min at 4° C. Protein amount was quantified with the Pierce BCA Protein Assay (Thermo Scientific; 23228). Protein (30 μg) was loaded onto a 4-20% gradient polyacrylamide gel (Invitrogen; SP04200BOX), resolved by electrophoresis, and transferred onto a 0.45 μm nitrocellulose membrane (BioRad; 1620115). The nitrocellulose membrane was blocked with Blotting Grade Blocker (BioRad; 170-6404) and incubated with rabbit-anti-phospho-SMAD⅔ 1:1000 (Cell Signaling Technologies; 8828) and rabbit-anti-Actin 1:1000 (Santa Cruz Biotechnology; SC1616) antibodies in blocker overnight at 4° C. Membrane was washed and stained with rabbit secondary antibody 1:2500 (Jackson Immuno Research Laboratories; 211-032-171) in blocker for 2 hr at 4° C. and developed using SuperSignal West Femto (Thermo Scientific; 34096). Images were taken on an Odyssey FC (Li-COR). After imaging, the nitrocellulose membrane was stripped using Restore Western Blot Stripping Buffer (Thermo Scientific; 21059), incubated with rabbit-anti-SMAD⅔ (Cell Signaling Technologies; 8685) antibody overnight at 4° C., washed and stained with rabbit secondary antibody 1:2500 in blocker for 2 hr 4° C., developed using SuperSignal West Femto, and imaged using the Odyssey FC.

TGFBR1 = assay: Lentiviral shRNA knockdown of TGFBR1 in Stage 6 cells; details: real-time PCR
Procedure: TBP was used as a normalization gene.
pLKO.1 TRC plasmids containing shRNA sequences contained the following sequences: shRNA GFP, […] (SEQ ID NO: 89); shRNA TGFBR1 #1, […] (SEQ ID NO: 90); shRNA TGFBR1 #2, […] (SEQ ID NO: 91). Lentivirus particles were generated and titered using pMD-Lgp/RRE and pCMV-G, and RSV-REV packaging plasmids to contain shRNA. Stage 6 Day 1 cells were single cell dispersed using TrypLE, and 3 million cells were seeded in 4 mL ESFM lentivirus particles at MOI 3-5 on the shaker. Transduced cells were washed with fresh ESFM 16 hr post transduction. RNA extraction and static GSIS was performed on stage 6 day 13.

[2] = tested on: plated pancreatic progenitors; assay: Single-cell RNA sequencing of plated pancreatic progenitors treated throughout stage 4; details: 5 μM nocodazole throughout stage 4
Procedure: Cells generated with the suspension protocol were single-cell dispersed with TrypLE from clusters at the end of stage 3 and seeded onto collagen 1 coated 24-well plates at 0.625×10^6 cells/cm^2. Either 0.5 μM latrunculin A or 5 μM nocodazole were added throughout the entirety of stage 4. At the end of stage 4, cells were single-cell dispersed, suspended in DMEM, and submitted to the Washington University Genome Technology Access Center. Library preparation was done using the Chromium Single Cell 3′ Library and Gel Bead Kit v2 (10× Genomics, 120237). Briefly, single cells were isolated in emulsions using a microfluidic platform, and each single cell emulsion was barcoded with a unique set of oligonucleotides. The GemCode Platform was used to carry out reverse transcription within each single cell emulsion, which was amplified to construct a library. The libraries were sequenced with paired-end reads of 26×98 primerbp using the Illumina HiSeq2500.
Seurat v2.0 was used to perform single cell RNA analyses. Duplicate cells and cells with high mitochondrial gene expression were filtered out using FilterCells (>9000 total genes and >5% mitochondrial genes for Untreated Control, >6000 genes and >6% mitochondrial genes for latrunculin A, >12000 genes and >4% mitochondrial genes for nocodazole). Each data set was normalized using global-scaling normalization. FindVariableGenes identified and removed outlier genes using scaled z-score dispersion. The datasets were then combined and a canonical correlation analysis (CCA) was performed with RunMultiCCA. AlignSubspace was used to align the CCA subspaces and generated a new dimension reduction for integrated analysis. Unsupervised TSNE plots were generated using RunTSNE, and the resulting clusters were defined and labeled using FindMarkers. VInPlot (Violin plots) and FeaturePlot (tsne plots) were used to visualize differences in gene expressions across each cluster and conditions.

[3] = tested on: HUES8 cells, intestinal differentiation protocol; assay: Intestine differentiation with cytoskeletal compounds; details: 1 μM for the entirety of stage 2
Procedure: (§1) For differentiation to other endodermal lineages, HUES8 stem cells were cultured and passaged normally. Differentiations were initiated 24 hours after seeding 24-well plates at 0.521×10^6 cells/cm^2. Protocols for exocrine pancreas, intestine, and liver were adapted, from literature. Either latrunculin A or nocodazole were added as indicated in each protocol. All three differentiation protocols used the same stage 1 to induce endoderm. Stage 1 (4 days): BE1 media+100 ng/mL Activin A+3 μM CHIR99021 for the first 24 hours, followed with 3 days of BE1 containing 100 ng/mL Activin A only.
Intestine Differentiation: Stage 2 (4 days): BE2 media+3 μM CHIR99021+500 ng/mL FGF4 (R&D Systems, 235-F4). Either 1 μM latrunculin A was added for the first 24 hours of this stage, or 1 μM nocodazole was added for the entirety of stage 2. Stage 3 (7 days): BE3 media+500 ng/mL R-spondin1 (R&D Systems, 4645-RS)+100 ng/mL EGF (R&D Systems, 236-EG)+200 nM LDN193189.

[4] = tested on: HUES8 cells, exocrine differentiation protocol; assay: Exocrine pancreas differentiation with cytoskeletal compounds; details: 1 μM for the entirety of stage 4
Procedure: as §1
Exocrine Pancreas: Stage 2 (2 days): BE2 media+50 ng/mL KGF. Stage 3 (2 days): BE3+50 ng/mL KGF, 200 nM LDN193189, 500 nM TPPB, 2 μM retinoic acid, and 0.25 μM SANT1. Stage 4 (4 days): BE3+50 ng/mL KGF, 200 nM LDN193189, 500 nM TPPB, 0.1 μM retinoic acid, and 0.25 μM SANT1. Either 1 μM latrunculin A was added for the first 24 hours of this stage, or 1 μM nocodazole was added for the entirety of stage 4. Stage 5 (6 days): S5 media+10 ng/mL bFGF. 10 mM nicotinamide (MilliporeSigma, 72340) was added for the last two days.

[5] = tested on: HUES8 cells, hepatic differentiation protocol; assay: Liver differentiation with cytoskeletal compounds; details: 1 μM for the first 24 hours of stage 3
Procedure: as §1
Liver Differentiation: Stage 2 (2 days): BE2 media+50 ng/mL KGF. Stage 3 (4 days): BE3 media+10 ng/mL bFGF+30 ng/mL BMP4 (R&D Systems, 314-BP). For the first 24 hours only, 2 μM retinoic acid and either 1 μM latrunculin A or 1 μM nocodazole were added. Stage 4 (5 days): BE3 media+20 ng/mL OSM (R&D Systems, 295-OM)+20 ng/mL HGF (R&D Systems, 294-HG)+100 nM dexamethasone (MilliporeSigma, D4902).

Compound | SMAD phosphorylation after shRNA transduction [1] | TGFBR1 transcript compared to control virus targeting GFP (TGFBR1) | percentage of exocrine-like progenitors [2] [%] | CDX2 gene expression and immunostaining [3] | endocrine induction [4] | trypsin gene expression (PRSS1, PRSS2) and immunostaining [4] | hepatocyte gene expression [5] | immunostaining for albumin [5]
TGFBR1 #2: lentivirus carrying shRNA against TGFBR1, GCAGGATTCTTTAGGCTTTAT (SEQ ID NO: 91) | reduced SMAD phosphorylation | reducing TGFBR1 transcript |  |  |  |  |  | 
TGFBR1 #1: lentivirus carrying shRNA against TGFBR1, GATCATGATTACTGTCGATAA (SEQ ID NO: 90) | reduced SMAD phosphorylation | reducing TGFBR1 transcript |  |  |  |  |  | 
COC(=O)Nc1nc2ccc(C(=O)c3cccs3)cc2[nH]1 [nocodazole] |  |  | 67.0 | greatly increased CDX2 gene expression and immunostaining | inhibited endocrine induction | greatly increased trypsin gene expression | increased hepatocyte gene expression | more abundant with nocodazole treatment
